This note sets out measurements from patent US10774054B2, “FXR (NR1H4) modulating compounds” (Gilead Sciences, Inc., priority 2016, dated 2020).

Series [1] can be described thus: Metabolite ID assay in human liver microsomes. The series is classed as in vitro ADME. The settings on record: human liver microsomes 1 mg/mL, 1 mM NADPH, 5 μM substrate, 0, 30, 60 minutes. How it is done: The metabolic stability of Example 3 and Comparative Example 1 in human liver microsmoes was conducted according to the following procedure. Human liver microsomes (35 μL protein concentration 20 mg/mL), 350 μL of 100 mM potassium phosphate buffer (pH 7.4), 245 μL of deionized water and 0.7 μL of compound stock solution (5 mM) were combined in a 1.5 mL microcentrifuge tube. The tube was sealed and gently vortexed for 10 seconds, then placed in an Eppendorf ThermoMixer C and pre-warmed at 37° C. with shaking at 1100 rpm for 5 minutes.
NADPH solution (70 μL; 10 mM in water) was added while shaking, the mixture was aspirated several times with pipet, and 200 μL was removed to a fresh 1.5 mL microcentrifuge tube on ice containing 200 μL of cold acetonitrile. […]
The chilled aliquots were centrifuged at 14,300 rpm in a microcentrifuge for 10 minutes at 10° C., then the supernatant was transferred to a deepwell (1 mL) 96 well plate and sealed with a silicon mat. […] 20 μL samples were analyzed by UPLC-MS in order to identify and quantify the metabolites (Agilent 1290 G4220 binary pump UPLC with Agilent G1316 TCC column oven; Waters Acquity UPLC BEH C18 (130 Å pore size, 1.7 μm particle size, 2.1×50 mm) column held at 40° C.; Agilent 1290 G4212 DAD diode array with wavelength range 190 to 400 nm; Thermo Electron Orbitrap Elite mass spectrometer in FTMS positive mode). […]
On the technique in general: Microsomes from liver hold many membrane-bound enzymes, among them those of drug oxidation.

Series [2] in a line: Drug concentration in plasma of Cynomolgus monkey after oral dosing. In kind it is in vivo. The settings on record: 300 mg/kg. From the text: Each dosing group consisted of three male Cynomolgus monkeys.

On to `O=C(O)c1cnc(N2CC(O)(c3ccc(OCc4c(-c5c(Cl)cccc5Cl)noc4C4CC4)cc3Cl)C2)c(F)c1` [Comparative Example 1], for which the “formation of diol metabolite M1” value in series [1] is “metabolized to a diol compound (M1)”.
With `O=C(O)c1cnc(N2CC(O)(c3ccc(OCc4c(-c5c(Cl)cc(F)cc5Cl)noc4C4CC4)cc3Cl)C2)c(F)c1` [Example 3, 6-(3-(2-chloro-4-((5-cyclopropyl-3-(2,6-dichloro-4-fluorophenyl)isoxazol-4-yl)methoxy)phenyl)-3-hydroxyazetidin-1-yl)-5-fluoronicotinic acid], in series [2], the “maximal plasma AUC of the two compounds compared” value was “comparable”.
